In series [1] the test system is E. coli (ATCC 8739) biofilm. The series is classed as cell-based, Escherichia coli. As to conditions: ATCC 8739, 24 h. On the procedure:
To test the anti-biofilm ability of PSTO2 and its analogues, three types of microorganisms (S. aureus ATCC® 6538, E. coli ATCC® 8739, and MRSA NCTC® 12493) were chosen. Tryptic soy broth (TSB) and Lysogeny broth (LB) were used to culture microorganisms. The peptide was dissolved in an autoclaved PBS solution and diluted into concentrations ranging from 51,200 µM to 100 µM. One µL of peptide solution of each concentration was added into a 96-well plate with 100 µL bacterium at 5 × 10^5 CFU/mL. The plate was incubated at 37 °C for 24 h, with shaking at 200 rpm. After overnight incubation, the planktonic bacteria were washed up. Then, 100 µL of methanol was used to fix the biofilms onto the bottom, and 100 µL of 0.1% crystal violet solution (Sigma-Aldrich, Gillingham, UK) was added to each well to stain the biofilms. After drying, 160 µL of acetic acid (30% in deionised water, Sigma-Aldrich, UK) was added to each well to dissolve the shaded parts. The absorbance was detected with the Synergy HT plate reader at λ = 595 nm.
For the MBEC assay, 100 µL of the bacterium of 5 × 10^5 CFU/mL was transferred into an empty 96-well plate, and the plate was incubated at 37 °C for 24 h to obtain the biofilms primarily. Then, the peptide solution from 512 µM to 1 µM was transferred into a corresponding well, followed by 24 h incubation at 37 °C, with shaking at 200 rpm. After this, the plate was handled using the identical method to the plate in the MBIC assay, and the absorbance of each well was detected with the Synergy HT plate reader at λ = 595 nm. The minimum concentration at which the peptide can eradicate the existing biofilm was recorded as the MBEC value.

A further series relates to horse red blood cells. The series is classed as cell-based. On the procedure:
To assess the haemolytic activity of PSTO2 and its analogues, 2% fresh defibrinated horse red blood cells (TCS Biosciences Ltd., Buckingham, UK) were acquired after being washed and resuspended in sterile PBS. Each peptide was dissolved in PBS to prepare solutions with concentrations ranging from 2 µM to 1024 µM. Subsequently, 100 µL of each peptide solution was mixed with 100 µL of the red blood cell suspension. The red blood cells treated with 1% triton X-100 and sterile PBS in equivalent volumes were set up as the positive and negative control groups, respectively. Then, all the samples were incubated at 37 °C for 2 h. Thereafter, the samples were centrifuged at 900× g for 10 min. Finally, 100 µL of supernatant of each sample was transferred into a 96-well plate, and the absorbance was recorded by a Synergy HT plate reader (Bio-Tek, Shoreline, WA, USA) at a wavelength of 570. The following equation was used to calculate haemolysis activity:Haemolysis activity = (Sample absorbance − Ab)/(Ap − Ab) × 100% where Ab refers to the mean value of absorbance of the negative control (incubated with PBS only), and Ap refers to the mean absorbance value of the positive control (incubated with triton X-100).

In series [2] the test system is K. pneumonia (ATCC 43816). The series is classed as cell-based, Klebsiella pneumonia. The settings on record: ATCC 43816, 24 h. The source says:
(§1) Seven microorganism strains were used to preliminarily evaluate the antimicrobial activity of PSTO2 and its analogues, including Staphylococcus aureus (S. aureus) (ATCC® 6538), methicillin-resistant Staphylococcus aureus (MRSA) (NCTC® 12493), Enterococcus faecalis (E. faecalis) (NCTC® 12697), E. coli (ATCC® 8739), Klebsiella pneumonia (K. pneumonia) (ATCC® 43816), Pseudomonas aeruginosa (P. aeruginosa) (ATCC® CRM 9027), Acinetobacter baumanni (A. baumanni) (BAA® 747), and Candida albicans (C. albicans) (ATCC® 10231). In this study, the strains were cultured in Mueller–Hinton broth (MHB), nutrient broth (NB), and yeast–peptone–dextrose broth (YPD-B) correspondingly at 37 °C, with shaking at 120 rpm. Each peptide was dissolved from 128 μM to 1 μM and mixed with the bacterium at 5 × 10^5 CFU/mL. In this process, bacteria with culture medium were used as the growth control group; PBS was set up as the vehicle control group; sterile culture medium was used as the blank control group; and Norfloxacin at a concentration of 2 mg/mL and amphotericin B at a concentration of 1 mg/mL were set up as the positive control group for bacteria and fungi, respectively.
(§2) After being incubated for 24 h, a Synergy HT plate reader (Bio-Tek, Shoreline, WA, USA) was used to detect the absorbance of each well in the 96-well plate at λ = 550 nm. The concentration at which no visible turbidity could be recorded was the MIC value. Beginning from the MIC value, 10 µL of solution in each clear well was dropped on the sterile agar plates. The plate was checked the next day for colony formation, and the lowest concentration at which no colony growing was recorded as an MBC value.

A further series deals with C. albicans. The series is classed as cell-based, Candida albicans. As to conditions: 24 h.
Source text: as §1, §2

Another series has as its system A. baumannii (BAA 747). The series is classed as cell-based, Acinetobacter baumanni. As to conditions: BAA 747, 24 h.
Source text: as §1, §2

For series [3], the system named is S. aureus (ATCC 6538). The series is classed as cell-based, Staphylococcus aureus. As to conditions: ATCC 6538, 24 h.
Source text: as §1, §2

Series [4] deals with S. aureus (ATCC 6538). The series is classed as cell-based, Staphylococcus aureus. As to conditions: ATCC 6538, 24 h.
Source text: as §1, with “In this process, bacteria with culture medium were used as the growth control group; PBS was set up as the vehicle control group; sterile culture medium was used as the blank control group; and Norfloxacin at a concentration of 2 mg/mL and amphotericin B at a concentration of 1 mg/mL were set up as the positive control group for bacteria and fungi, respectively.” left out
After being incubated for 24 h, a Synergy HT plate reader (Bio-Tek, Shoreline, WA, USA) was used to detect the absorbance of each well in the 96-well plate at λ = 550 nm. The concentration at which no visible turbidity could be recorded was the MIC value. […] The plate was checked the next day for colony formation, and the lowest concentration at which no colony growing was recorded as an MBC value. […]
This is another data set of the same source.

The source of these data is PMC11360180, “Enhancement of Antimicrobial Function by L/D-Lysine Substitution on a Novel Broad-Spectrum Antimicrobial Peptide, Phylloseptin-TO2: A Structure-Related Activity Research Study” (Pharmaceutics, 2024).

Read-outs that look alike come from different tables or passages of the source. Where a SMILES comes first, the peptide text is derived from it. Where no end group is shown, it is not given here. [ ]: non-standard residue; d: D form.

Regarding `CC[C@H](C)[C@H](NC(=O)[C@H](C)NC(=O)[C@@H](CCCCN)NC(=O)[C@@H]1CCCN1C(=O)[C@@H](NC(=O)[C@H](CC(C)C)NC(=O)[C@H](CO)NC(=O)[C@H](CC(C)C)NC(=O)[C@@H](N)Cc1ccccc1)[C@@H](C)CC)C(=O)N[C@@H](CCCCN)C(=O)N[C@@H](C)C(=O)N[C@H](C(=O)N[C@@H](CCCCN)C(=O)N[C@@H](C)C(=O)N[C@@H](CC(C)C)C(=O)N[C@@H](C)C(=O)N[C@@H](CCCCN)C(=O)N[C@H](CCCCN)C(=O)N[C@@H](CC(C)C)C(N)=O)C(C)C` [SR2D10] (H-FLSLIP[dK]AIKAVKALAK[dK]L-NH2), the MBEC in series [1] worked out at 64 µM. Also, the MBIC in series [1] came out at 32 µM. Further, in the series with horse red blood cells, the HC10 worked out at 75.24. Further, the MBC in series [2] is 4 µM; in the series on C. albicans, 128 µM; with A. baumannii (BAA 747), 16/16 μM; in the series on S. aureus (ATCC 6538) [3], 1/1 μM. The results for the MIC (in series [2]; with C. albicans; in the series on A. baumannii (BAA 747)) were 4 µM, 64 µM and 16/16 μM, respectively.
`CC[C@H](C)[C@H](NC(=O)[C@H](C)NC(=O)[C@@H](CCCCN)NC(=O)[C@@H]1CCCN1C(=O)[C@@H](NC(=O)[C@H](CC(C)C)NC(=O)[C@H](CO)NC(=O)[C@H](CC(C)C)NC(=O)[C@@H](N)Cc1ccccc1)[C@@H](C)CC)C(=O)N[C@@H](CCCCN)C(=O)N[C@@H](C)C(=O)N[C@H](C(=O)N[C@@H](CO)C(=O)N[C@@H](C)C(=O)N[C@@H](CC(C)C)C(=O)N[C@@H](C)C(=O)N[C@@H](CCCCN)C(=O)N[C@@H](CCCCN)C(=O)N[C@@H](CC(C)C)C(N)=O)C(C)C` [SRD7] (H-FLSLIP[dK]AIKAVSALAKKL-NH2): in series [1], the MBEC came out at 64 µM. Also, the MBIC in series [1] was 32 µM. For the same compound, the HC10 in the series with horse red blood cells is 74.78. Moreover, the MBC with C. albicans is 64 µM; in the series with A. baumannii (BAA 747), 16/16 μM; in the series on S. aureus (ATCC 6538) [3], 1/1 μM. Besides, the MIC in the series on C. albicans turned out to be 32 µM.
Consider FLSLIPKAIKAVKALAKKL-NH2 [SR2], for which the MBC in the series on S. aureus (ATCC 6538) [4] is 2 µM; in series [2] it was 2 µM; in the series on C. albicans it was 64 µM; in the series with A. baumannii (BAA 747), 2/2 μM; in the series on S. aureus (ATCC 6538) [3] it was 2 µM. In addition, the MIC in the series on S. aureus (ATCC 6538) [4] worked out at 2 µM; in series [2], 2 µM; with C. albicans, 32 µM; with S. aureus (ATCC 6538) [3], 2 µM. Moreover, the MBEC in series [1] came to 16 µM. Besides, the MBIC in series [1] was determined as 8 µM. Moreover, in the series with horse red blood cells, the HC10 was 6.53.
Turning to FLSLIPKAIKAVSALAKKL-NH2 [SR], in series [1], the MBEC is 16/16 μM. The MBIC in series [1] is given as 16/16 μM. In addition, in the series on horse red blood cells, the HC10 is recorded as 12.60. Also, the MBC was 2 µM in series [2], 128 µM with C. albicans, 4/4 μM in the series with A. baumannii (BAA 747) and 2 µM in the series with S. aureus (ATCC 6538) [3]. Moreover, the results for the MIC (in series [2]; in the series on C. albicans; with S. aureus (ATCC 6538) [3]) were 2 µM, 32 µM and 2 µM, respectively.
